Test results published in ChEMBL document CHEMBL4699517 (Bioorg Med Chem Lett, 2020).
The source made the active and inactive calls. No cut-off for these calls is given here.

Legend:
Format in all cases: cell-based
[1] = target: Phosphatidylinositol 4,5-bisphosphate 3-kinase catalytic subunit gamma isoform (Homo sapiens) (UniProt P48736); assay: Inhibition of PI3Kgamma in human Raji cells assessed as inhibition of cell viability at 100 nM after 72 hrs by CellTiter-Glo luminescence assay
[2] = target: Phosphatidylinositol 4,5-bisphosphate 3-kinase catalytic subunit gamma isoform (Homo sapiens) (UniProt P48736); assay: Inhibition of PI3Kgamma in human MOLT-4 cells assessed as inhibition of cell viability at 100 nM after 72 hrs by CellTiter-Glo luminescent assay
[3] = target: Phosphatidylinositol 4,5-bisphosphate 3-kinase catalytic subunit gamma isoform (Homo sapiens) (UniProt P48736); assay: Inhibition of PI3Kgamma in human SUDHL-6 cells assessed as inhibition of cell viability at 100 nM after 72 hrs by CellTiter-Glo luminescent assay; details: SU-DHL-6
[4] = target: Phosphatidylinositol 4,5-bisphosphate 3-kinase catalytic subunit gamma isoform (Homo sapiens) (UniProt P48736); assay: Inhibition of PI3Kgamma in human LCL-1 cells assessed as inhibition of cell viability at 100 nM after 72 hrs by CellTiter-Glo luminescent assay
[5] = target: Phosphatidylinositol 4,5-bisphosphate 3-kinase catalytic subunit gamma isoform (Homo sapiens) (UniProt P48736); assay: Inhibition of PI3Kgamma in human RPMI-8226 cells assessed as inhibition of cell viability at 100 nM after 72 hrs by CellTiter-Glo luminescent assay
[6] = target: Phosphatidylinositol 4,5-bisphosphate 3-kinase catalytic subunit gamma isoform (Homo sapiens) (UniProt P48736); assay: Inhibition of PI3Kgamma in human SUDHL-10 cells assessed as inhibition of cell viability at 100 nM after 72 hrs by CellTiter-Glo luminescent assay; details: SU-DHL-10

Chain of Phosphatidylinositol 4,5-bisphosphate 3-kinase catalytic subunit gamma isoform (Homo sapiens) (P48736 whole entry, looked up, canonical isoform): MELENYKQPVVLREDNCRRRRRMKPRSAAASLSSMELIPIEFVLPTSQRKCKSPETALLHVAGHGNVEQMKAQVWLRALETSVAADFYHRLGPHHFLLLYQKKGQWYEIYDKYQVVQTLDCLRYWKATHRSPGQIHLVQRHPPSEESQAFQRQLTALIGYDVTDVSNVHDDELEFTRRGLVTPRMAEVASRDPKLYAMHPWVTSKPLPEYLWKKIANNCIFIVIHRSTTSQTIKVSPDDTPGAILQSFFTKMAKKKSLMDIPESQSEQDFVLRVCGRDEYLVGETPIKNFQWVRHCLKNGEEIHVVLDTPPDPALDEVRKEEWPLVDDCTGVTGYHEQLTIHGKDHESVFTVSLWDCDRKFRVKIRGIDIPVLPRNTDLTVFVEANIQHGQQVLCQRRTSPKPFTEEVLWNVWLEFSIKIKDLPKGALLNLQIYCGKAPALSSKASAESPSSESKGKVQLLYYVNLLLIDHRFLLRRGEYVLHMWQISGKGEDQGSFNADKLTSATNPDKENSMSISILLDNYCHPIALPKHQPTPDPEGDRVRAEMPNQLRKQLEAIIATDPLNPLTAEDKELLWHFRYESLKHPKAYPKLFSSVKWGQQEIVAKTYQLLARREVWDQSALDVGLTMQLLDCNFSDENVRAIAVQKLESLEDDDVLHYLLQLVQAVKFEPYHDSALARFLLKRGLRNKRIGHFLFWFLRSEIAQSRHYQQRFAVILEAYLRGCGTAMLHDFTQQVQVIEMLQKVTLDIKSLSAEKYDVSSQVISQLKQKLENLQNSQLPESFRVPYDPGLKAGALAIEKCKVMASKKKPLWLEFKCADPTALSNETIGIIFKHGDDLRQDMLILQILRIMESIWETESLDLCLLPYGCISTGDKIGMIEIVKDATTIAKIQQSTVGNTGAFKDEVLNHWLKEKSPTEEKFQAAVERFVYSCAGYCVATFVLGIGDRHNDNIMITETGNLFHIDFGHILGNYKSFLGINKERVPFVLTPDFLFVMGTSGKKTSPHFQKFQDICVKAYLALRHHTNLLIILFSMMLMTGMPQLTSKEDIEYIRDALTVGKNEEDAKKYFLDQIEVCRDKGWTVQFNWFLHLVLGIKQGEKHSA

SMILES	inhibition [1]	inhibition [2]	inhibition [3]	inhibition [4]	inhibition [5]	inhibition [6]
COC(=O)[C@@]12OC[C@]34[C@H]([C@@H](O)[C@@H]1O)[C@@]1(C)CC(=O)C(OC(=O)[C@H](CC(C)C)NC(=O)OC(C)(C)C)=C(C)[C@@H]1C[C@H]3OC(=O)[C@H](OC(=O)C=C(C)C)[C@@H]24	inactive	–	–	–	–	–
COC(=O)[C@@]12OC[C@]34[C@H]([C@@H](O)[C@@H]1O)[C@@]1(C)CC(=O)C(OCC(=O)NCCC(=O)OC(C)(C)C)=C(C)[C@@H]1C[C@H]3OC(=O)[C@H](OC(=O)C=C(C)C)[C@@H]24	inactive	–	–	–	–	–
COC(=O)[C@@]12OC[C@]34[C@H]([C@@H](O)[C@@H]1O)[C@@]1(C)CC(=O)C(OC(=O)[C@@H](N)CC(C)C)=C(C)[C@@H]1C[C@H]3OC(=O)[C@H](OC(=O)C=C(C)C)[C@@H]24	Active	–	–	–	–	–
COC(=O)[C@@]12OC[C@]34[C@H]([C@@H](O)[C@@H]1O)[C@@]1(C)CC(=O)C(OC(=O)[C@H](C)NC(=O)OC(C)(C)C)=C(C)[C@@H]1C[C@H]3OC(=O)[C@H](OC(=O)C=C(C)C)[C@@H]24	Active	–	–	–	–	–
COC(=O)[C@@]12OC[C@]34[C@H]([C@@H](O)[C@@H]1O)[C@@]1(C)CC(=O)C(OC(=O)[C@H]5CCCN5)=C(C)[C@@H]1C[C@H]3OC(=O)[C@H](OC(=O)C=C(C)C)[C@@H]24	Active	Active	Active	Active	Active	Active
COC(=O)[C@@]12OC[C@]34[C@H]([C@@H](O)[C@@H]1O)[C@@]1(C)CC(=O)C(OC(=O)[C@H](C)NC(=O)[C@H](C)N)=C(C)[C@@H]1C[C@H]3OC(=O)[C@H](OC(=O)C=C(C)C)[C@@H]24	inactive	inactive	inactive	inactive	inactive	inactive
COC(=O)[C@@]12OC[C@]34[C@H]([C@@H](O)[C@@H]1O)[C@@]1(C)CC(=O)C(OCC(=O)NC(Cc5ccccc5)C(=O)OC(C)(C)C)=C(C)[C@@H]1C[C@H]3OC(=O)[C@H](OC(=O)C=C(C)C)[C@@H]24 (some centres undefined)	inactive	–	–	–	–	–
COC(=O)[C@@]12OC[C@]34[C@H]([C@@H](O)[C@@H]1O)[C@@]1(C)CC(=O)C(OC(=O)[C@@H](N)C(C)C)=C(C)[C@@H]1C[C@H]3OC(=O)[C@H](OC(=O)C=C(C)C)[C@@H]24	Active	–	–	–	–	–
COC(=O)[C@@]12OC[C@]34[C@H]([C@@H](O)[C@@H]1O)[C@@]1(C)CC(=O)C(OC(=O)C[C@H](C)NC(=O)OC(C)(C)C)=C(C)[C@@H]1C[C@H]3OC(=O)[C@H](OC(=O)C=C(C)C)[C@@H]24	inactive	–	–	–	–	–
CC[C@H](C)[C@H](NC(=O)OC(C)(C)C)C(=O)OC1=C(C)[C@@H]2C[C@H]3OC(=O)[C@H](OC(=O)C=C(C)C)[C@H]4[C@]5(C(=O)OC)OC[C@]34[C@H]([C@@H](O)[C@@H]5O)[C@@]2(C)CC1=O	inactive	–	–	–	–	–
COC(=O)[C@@]12OC[C@]34[C@H]([C@@H](O)[C@@H]1O)[C@@]1(C)CC(=O)C(OC(=O)C[C@H](C)NS(C)(=O)=O)=C(C)[C@@H]1C[C@H]3OC(=O)[C@H](OC(=O)C=C(C)C)[C@@H]24	inactive	–	–	–	–	–
COC(=O)[C@@]12OC[C@]34[C@H]([C@@H](O)[C@@H]1O)[C@@]1(C)CC(=O)C(OCC(=O)NC(Cc5ccccc5)C(=O)O)=C(C)[C@@H]1C[C@H]3OC(=O)[C@H](OC(=O)C=C(C)C)[C@@H]24 (some centres undefined)	inactive	–	–	–	–	–
COC(=O)[C@@]12OC[C@]34[C@H]([C@@H](O)[C@@H]1O)[C@@]1(C)CC(=O)C(OCC(=O)C5CC5)=C(C)[C@@H]1C[C@H]3OC(=O)[C@H](OC(=O)C=C(C)C)[C@@H]24	inactive	–	–	–	–	–
COC(=O)[C@@]12OC[C@]34[C@H]([C@@H](O)[C@@H]1O)[C@@]1(C)CC(=O)C(OCC(N)=O)=C(C)[C@@H]1C[C@H]3OC(=O)[C@H](OC(=O)C=C(C)C)[C@@H]24	inactive	–	–	–	–	–
COC(=O)[C@@]12OC[C@]34[C@H]([C@@H](O)[C@@H]1O)[C@@]1(C)CC(=O)C(OC(=O)[C@@H]5CCCN5C(=O)OC(C)(C)C)=C(C)[C@@H]1C[C@H]3OC(=O)[C@H](OC(=O)C=C(C)C)[C@@H]24	Active	–	–	–	–	–
COC(=O)[C@@]12OC[C@]34[C@H]([C@@H](O)[C@@H]1O)[C@@]1(C)CC(=O)C(OC(=O)C[C@@H](N)C(F)(F)F)=C(C)[C@@H]1C[C@H]3OC(=O)[C@H](OC(=O)C=C(C)C)[C@@H]24	inactive	–	–	–	–	–
COC(=O)[C@@]12OC[C@]34[C@H]([C@@H](O)[C@@H]1O)[C@@]1(C)CC(=O)C(OC(=O)C[C@@H](C)N)=C(C)[C@@H]1C[C@H]3OC(=O)[C@H](OC(=O)C=C(C)C)[C@@H]24	Active	Active	Active	Active	Active	Active

SMILES	inhibition [1]	inhibition [2]	inhibition [3]	inhibition [4]	inhibition [5]	inhibition [6]
COC(=O)[C@@]12OC[C@]34[C@H]([C@@H](O)[C@@H]1O)[C@@]1(C)CC(=O)C(OC(=O)C[C@H](C)NC(C)=O)=C(C)[C@@H]1C[C@H]3OC(=O)[C@H](OC(=O)C=C(C)C)[C@@H]24	Active	Active	Active	Active	Active	Active
CC[C@H](C)[C@H](N)C(=O)OC1=C(C)[C@@H]2C[C@H]3OC(=O)[C@H](OC(=O)C=C(C)C)[C@H]4[C@]5(C(=O)OC)OC[C@]34[C@H]([C@@H](O)[C@@H]5O)[C@@]2(C)CC1=O	Active	–	–	–	–	–
COC(=O)[C@@]12OC[C@]34[C@H]([C@@H](O)[C@@H]1O)[C@@]1(C)CC(=O)C(OCC(=O)NC(C)(C)C)=C(C)[C@@H]1C[C@H]3OC(=O)[C@H](OC(=O)C=C(C)C)[C@@H]24	inactive	–	–	–	–	–
COC(=O)[C@@]12OC[C@]34[C@H]([C@@H](O)[C@@H]1O)[C@@]1(C)CC(=O)C(OC(=O)[C@@H]5CC(F)(F)CN5)=C(C)[C@@H]1C[C@H]3OC(=O)[C@H](OC(=O)C=C(C)C)[C@@H]24	Active	Active	Active	Active	Active	Active
COC(=O)[C@@]12OC[C@]34[C@H]([C@@H](O)[C@@H]1O)[C@@]1(C)CC(=O)C(OC(=O)C[C@@H](N)C(C)C)=C(C)[C@@H]1C[C@H]3OC(=O)[C@H](OC(=O)C=C(C)C)[C@@H]24	inactive	–	–	–	–	–
COC(=O)[C@@]12OC[C@]34[C@H]([C@@H](O)[C@@H]1O)[C@@]1(C)CC(=O)C(OC(=O)CNC(=O)CN)=C(C)[C@@H]1C[C@H]3OC(=O)[C@H](OC(=O)C=C(C)C)[C@@H]24	Active	Active	Active	Active	Active	Active
COC(=O)[C@@]12OC[C@]34[C@H]([C@@H](O)[C@@H]1O)[C@@]1(C)CC(=O)C(OCC(=O)NCCN)=C(C)[C@@H]1C[C@H]3OC(=O)[C@H](OC(=O)C=C(C)C)[C@@H]24	Active	Active	Active	Active	Active	Active
COC(=O)[C@@]12OC[C@]34[C@H]([C@@H](O)[C@@H]1O)[C@@]1(C)CC(=O)C(OC(=O)[C@@H](NC(=O)OC(C)(C)C)C(C)C)=C(C)[C@@H]1C[C@H]3OC(=O)[C@H](OC(=O)C=C(C)C)[C@@H]24	inactive	–	–	–	–	–
COC(=O)[C@@]12OC[C@]34[C@H]([C@@H](O)[C@@H]1O)[C@@]1(C)CC(=O)C(OC(=O)C[C@@H](N)C5CC5)=C(C)[C@@H]1C[C@H]3OC(=O)[C@H](OC(=O)C=C(C)C)[C@@H]24	inactive	–	–	–	–	–
COC(=O)[C@@]12OC[C@]34[C@H]([C@@H](O)[C@@H]1O)[C@@]1(C)CC(=O)C(OCC(=O)C(C)(C)C)=C(C)[C@@H]1C[C@H]3OC(=O)[C@H](OC(=O)C=C(C)C)[C@@H]24	inactive	–	–	–	–	–
COC(=O)[C@@]12OC[C@]34[C@H]([C@@H](O)[C@@H]1O)[C@@]1(C)CC(=O)C(OC(=O)[C@H](C)N)=C(C)[C@@H]1C[C@H]3OC(=O)[C@H](OC(=O)C=C(C)C)[C@@H]24	Active	–	–	–	–	–
COC(=O)[C@@]12OC[C@]34[C@H]([C@@H](O)[C@@H]1O)[C@@]1(C)CC(=O)C(OCC(=O)NCCC(=O)O)=C(C)[C@@H]1C[C@H]3OC(=O)[C@H](OC(=O)C=C(C)C)[C@@H]24	inactive	–	–	–	–	–
COC(=O)[C@@]12OC[C@]34[C@H]([C@@H](O)[C@@H]1O)[C@@]1(C)CC(=O)C(OC(=O)CN)=C(C)[C@@H]1C[C@H]3OC(=O)[C@H](OC(=O)C=C(C)C)[C@@H]24	Active	–	–	–	–	–
COC(=O)[C@@]12OC[C@]34[C@H]([C@@H](O)[C@@H]1O)[C@@]1(C)CC(=O)C(OC(=O)C[C@H](C)NC(=O)C[C@H](C)N)=C(C)[C@@H]1C[C@H]3OC(=O)[C@H](OC(=O)C=C(C)C)[C@@H]24	Active	Active	Active	Active	Active	Active
COC(=O)[C@@]12OC[C@]34[C@H]([C@@H](O)[C@@H]1O)[C@@]1(C)CC(=O)C(OC(=O)[C@@H]5CCCN5)=C(C)[C@@H]1C[C@H]3OC(=O)[C@H](OC(=O)C=C(C)C)[C@@H]24	Active	–	–	–	–	–
COC(=O)COC1=C(C)[C@@H]2C[C@H]3OC(=O)[C@H](OC(=O)C=C(C)C)[C@H]4[C@]5(C(=O)OC)OC[C@]34[C@H]([C@@H](O)[C@@H]5O)[C@@]2(C)CC1=O	inactive	–	–	–	–	–
COC(=O)[C@@]12OC[C@]34[C@H]([C@@H](O)[C@@H]1O)[C@@]1(C)CC(=O)C(OC(=O)CNC(=O)CNC(=O)CN)=C(C)[C@@H]1C[C@H]3OC(=O)[C@H](OC(=O)C=C(C)C)[C@@H]24	Active	Active	Active	Active	Active	Active
